Counter-ions that a name gives are not always drawn.
molecular target: T1, PDE10A (human) (Homo sapiens, UniProt Q9Y233); assay: Measurement of PDE activity (HTRF cAMP kit), human PDE10A; format: biochemical; settings: PDE enzymatic reaction, substrate 20 nM for PDE10, 60 minutes at 29 C
T1 construct: purchased BPS Bioscience
Procedure: The recombinant PDE proteins are used in in vitro enzymatic reaction for measurement of PDE activity. These recombinant proteins, including PDE10A (human, rat and mouse PDE10) and isoforms of PDEs 1, 3, 4, and 5, were purchased from commercial vendor BPS Bioscience. The enzymatic activity of PDEs was determined by cAMP measurement kit from CisBio (IBA) using HTRF technology.
The PDE enzymatic reaction was carried out in assay buffer (20 mM Tris-HCl pH7.5, 10 mM MgCl2, 0.1% bovine serum albumin) containing enzyme and substrate. The PDE enzymes concentration ranged from 10 pM-250 pM, depending on each enzyme's specific activity. The substrate cyclic nucleotide (cAMP or cGMP) concentration used in the assay was 20 nM for PDE10, and 100 nM for other PDEs. The inhibitory effect of compound was determined by incubating various concentration of inhibitor in the enzymatic assay. Typically, compound was serial diluted in DMSO then further diluted in assay buffer. Next, the compound at varying concentration was mixed with PDE enzyme. The reaction was initiated by addition of cyclic nucleotide substrate, and incubated for 60 minutes at 29 C. The reaction was stopped by addition of lysis buffer from assay kit. The cAMP-d2 and anti-cAMP cryptate in the lysis buffer detected the level of cAMP left from the PDE hydrolysis reaction. The PDE activity is reversely correlated with the amount of cAMP left in the reaction and can be converted to the percent activity of an uninhibited control (100%). Thus, IC50 value of inhibitor can be obtained by plotting inhibitor concentration against PDE activity at that concentration.

T1 sequence (Q9Y233 whole entry): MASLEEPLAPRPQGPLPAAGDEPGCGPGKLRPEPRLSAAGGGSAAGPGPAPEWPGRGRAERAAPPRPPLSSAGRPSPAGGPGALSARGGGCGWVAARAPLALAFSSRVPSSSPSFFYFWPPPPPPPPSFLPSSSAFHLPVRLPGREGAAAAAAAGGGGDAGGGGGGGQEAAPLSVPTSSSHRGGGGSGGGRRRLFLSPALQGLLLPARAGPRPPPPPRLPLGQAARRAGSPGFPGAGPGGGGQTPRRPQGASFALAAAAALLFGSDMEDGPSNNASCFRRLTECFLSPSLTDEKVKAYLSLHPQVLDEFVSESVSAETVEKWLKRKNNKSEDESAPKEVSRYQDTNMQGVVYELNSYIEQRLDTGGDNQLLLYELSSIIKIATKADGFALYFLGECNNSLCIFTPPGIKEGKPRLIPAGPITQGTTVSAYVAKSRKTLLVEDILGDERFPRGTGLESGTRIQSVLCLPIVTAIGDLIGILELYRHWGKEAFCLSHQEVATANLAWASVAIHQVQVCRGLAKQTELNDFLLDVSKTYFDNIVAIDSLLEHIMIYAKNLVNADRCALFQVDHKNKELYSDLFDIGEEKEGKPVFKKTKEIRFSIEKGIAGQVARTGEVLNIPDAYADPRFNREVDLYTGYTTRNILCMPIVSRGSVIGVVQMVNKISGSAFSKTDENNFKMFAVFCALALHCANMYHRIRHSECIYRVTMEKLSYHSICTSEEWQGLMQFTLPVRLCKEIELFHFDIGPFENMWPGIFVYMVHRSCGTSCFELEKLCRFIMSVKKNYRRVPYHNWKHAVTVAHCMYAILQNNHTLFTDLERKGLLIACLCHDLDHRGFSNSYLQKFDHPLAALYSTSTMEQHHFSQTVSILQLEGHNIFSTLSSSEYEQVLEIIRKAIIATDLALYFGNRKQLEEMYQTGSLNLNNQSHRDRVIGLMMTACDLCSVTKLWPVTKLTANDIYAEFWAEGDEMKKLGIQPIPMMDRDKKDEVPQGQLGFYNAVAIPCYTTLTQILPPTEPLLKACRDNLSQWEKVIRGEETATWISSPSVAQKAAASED

IC50 | Compound
200 to 500 nM | O=C1c2cccc(-c3ccnc(C4CC4)c3)c2CN1CCc1ccc2ccccc2n1 [Example 354, 4-(2-Cyclopropyl-pyridin-4-yl)-2-(2-quinolin-2-yl-ethyl)-2,3-dihydro-isoindol-1-one]
< 100 nM | O=C1c2c(N3CCC(F)(F)CC3)ccnc2CN1CCc1nc2ccccc2s1 [compound 527, 6-[2-(1,3-Benzothiazol-2-yl)ethyl]-4-(4,4-difluoro-1-piperidyl)-7H-pyrrolo[3,4-b]pyridin-5-one trifluoroacetate]
100 to 200 nM | Cn1cc(-c2cccc3c2C(=O)N(CCc2ccc4ccccc4n2)C3)cn1 [Example 70, 7-(1-Methyl-1H-pyrazol-4-yl)-2-(2-quinolin-2-yl-ethyl)-2,3-dihydro-isoindol-1-one]
< 100 nM | Cn1nccc1-c1cccc2c1C(=O)N(CCc1ccc3ccccc3n1)C2 [Example 74, 7-(2-Methyl-2H-pyrazol-3-yl)-2-(2-quinolin-2-yl-ethyl)-2,3-dihydro-isoindol-1-one]
200 to 500 nM | Cn1c(CCN2Cc3cccc(-c4ccc(F)cc4)c3C2=O)nc2ccccc21 [Example 211, 7-(4-Fluoro-phenyl)-2-[2-(1-methyl-1H-benzoimidazol-2-yl)-ethyl]-2,3-dihydro-isoindol-1-one trifluoroacetate]
< 100 nM | CC(C)Oc1ccc(-c2ccncc2)c2c1CN(CCc1ccc3ccccc3n1)C2=O [Example 205, 4-Isopropoxy-7-pyridin-4-yl-2-(2-quinolin-2-yl-ethyl)-2,3-dihydro-isoindol-1-one]
< 100 nM | O=C1c2c(-c3cc[nH]n3)ccnc2CN1CCc1ccc2ccccc2n1 [Example 323, 4-(1H-Pyrazol-3-yl)-6-(2-quinolin-2-yl-ethyl)-6,7-dihydro-pyrrolo[3,4-b]pyridin-5-one]
100 to 200 nM | COc1ccc(-c2ccc(OC)c3c2C(=O)N(CCc2ccc4ccccc4n2)C3)cc1 [Example 186, 4-Methoxy-7-(4-methoxy-phenyl)-2-(2-quinolin-2-yl-ethyl)-2,3-dihydro-isoindol-1-one]
< 100 nM | O=C1c2c(-c3ccncc3)ccnc2CN1CCc1nc(C2CC2)cs1 [compound 517, 6-[2-(4-Cyclopropylthiazol-2-yl)ethyl]-4-(4-pyridyl)-7H-pyrrolo[3,4-b]pyridin-5-one]
200 to 500 nM | COc1ccc(-c2cccc3c2C(=O)N(CCc2ccc4ccccc4n2)C3)cc1F [Example 32, 7-(3-Fluoro-4-methoxy-phenyl)-2-(2-quinolin-2-yl-ethyl)-2,3-dihydro-isoindol-1-one]
200 to 500 nM | CCOC(=O)C1CCN(c2ccnc3c2C(=O)N(CCc2ccc4ccccc4n2)C3)CC1 [Example 319, 1-[5-Oxo-6-(2-quinolin-2-yl-ethyl)-6,7-dihydro-5H-pyrrolo[3,4-b]pyridin-4-yl]-piperidine-4-carboxylic acid ethyl ester]
< 100 nM | O=C1c2c(-c3ccncc3)ccc(OC(F)F)c2CN1CCc1ccc2ccccc2n1 [Example 268, 4-Difluoromethoxy-7-pyridin-4-yl-2-(2-quinolin-2-yl-ethyl)-2,3-dihydro-isoindol-1-one]
200 to 500 nM | O=C1c2c(cccc2-c2ccc3c(c2)CCO3)CN1CCc1ccc2ccccc2n1 [Example 56, 7-(2,3-Dihydro-benzofuran-5-yl)-2-(2-quinolin-2-yl-ethyl)-2,3-dihydro-isoindol-1-one]
< 100 nM | Cc1ccc2c(c1)nc(CCN1Cc3cccc(-c4ccncc4)c3C1=O)n2C [Example 301, 2-[2-(1,5-Dimethyl-1H-benzoimidazol-2-yl)-ethyl]-7-pyridin-4-yl-2,3-dihydro-isoindol-1-one trifluoroacetate]
200 to 500 nM | COc1cncc(-c2cccc3c2CN(CCc2ccc4ccccc4n2)C3=O)n1 [Example 356, 4-(6-Methoxy-pyrazin-2-yl)-2-(2-quinolin-2-yl-ethyl)-2,3-dihydro-isoindol-1-one]
200 to 500 nM | O=C1c2cccc(-c3ccc(F)cc3)c2CN1CCc1ccc2ccccc2n1 [Example 212, 4-(4-Fluoro-phenyl)-2-(2-quinolin-2-yl-ethyl)-2,3-dihydro-isoindol-1-one trifluoroacetate]
200 to 500 nM | CN1CCC(N2CCN(c3cccc4c3C(=O)N(CCc3ccc5ccccc5n3)C4)CC2)CC1 [Example 105, 7-[4-(1-Methyl-piperidin-4-yl)-piperazin-1-yl]-2-(2-quinolin-2-yl-ethyl)-2,3-dihydro-isoindol-1-one]
< 100 nM | O=C1c2c(C3CCOC3)ccnc2CN1CCc1ccc2ccccc2n1 (stereo not drawn) [Example 309, 6-(2-Quinolin-2-yl-ethyl)-4-(tetrahydro-furan-3-yl)-6,7-dihydro-pyrrolo[3,4-b]pyridin-5-one]

IC50 | Compound
200 to 500 nM | Cc1ccsc1-c1cccc2c1CN(CCc1ccc3ccccc3n1)C2=O [Example 351, 4-(3-Methyl-thiophen-2-yl)-2-(2-quinolin-2-yl-ethyl)-2,3-dihydro-isoindol-1-one]
200 to 500 nM | O=C1c2c(cccc2N2CCCC3NCCCC32)CN1CCc1ccc2ccccc2n1 (stereo not drawn) [Example 279, 7-(Octahydro-[1,5]naphthyridin-1-yl)-2-(2-quinolin-2-yl-ethyl)-2,3-dihydro-isoindol-1-one trifluoroacetate]
200 to 500 nM | Cn1c(CCN2Cc3cccc(N4CCOCC4)c3C2=O)nc2c(F)cccc21 [Example 307, 2-[2-(4-Fluoro-1-methyl-1H-benzoimidazol-2-yl)-ethyl]-7-morpholin-4-yl-2,3-dihydro-isoindol-1-one trifluoroacetate]
100 to 200 nM | COc1cnccc1-c1ccnc2c1C(=O)N(CCc1ccc3ccccc3n1)C2 [compound 389, 4-(3-Methoxy-4-pyridyl)-6-[2-(2-quinolyl)ethyl]-7H-pyrrolo[3,4-b]pyridin-5-one]
< 100 nM | COc1ccc(-c2ccnc3c2CN(CCc2ccc4ccccc4n2)C3=O)cc1 [compound 458, 4-(4-Methoxy-phenyl)-6-(2-quinolin-2-yl-ethyl)-5,6-dihydro-pyrrolo[3,4-b]pyridin-7-one trifluoroacetate]
< 100 nM | Cn1nccc1-c1ccc(F)c2c1C(=O)N(CCc1ccc3ccccc3n1)C2 [compound 439, 4-Fluoro-7-(2-methylpyrazol-3-yl)-2-[2-(2-quinolyl)ethyl]isoindolin-1-one]
200 to 500 nM | O=C1c2c(cccc2-c2ccco2)CN1CCc1ccc2ccccc2n1 [Example 31, 7-Furan-2-yl-2-(2-quinolin-2-yl-ethyl)-2,3-dihydro-isoindol-1-one]
< 100 nM | O=C1c2c(cccc2-c2ccc3cc[nH]c3c2)CN1CCc1ccc2ccccc2n1 [Example 64, 7-(1H-Indol-6-yl)-2-(2-quinolin-2-yl-ethyl)-2,3-dihydro-isoindol-1-one]
100 to 200 nM | O=C1c2c(cccc2N2CCOCC2)CN1CCc1cc(Cl)c2ccccc2n1 [Example 117, 2-[2-(4-Chloro-quinolin-2-yl)-ethyl]-7-morpholin-4-yl-2,3-dihydro-isoindol-1-one trifluoroacetate]
< 100 nM | O=C1c2c(cccc2-c2ccc3ncccc3c2)CN1CCc1ccc2ccccc2n1 [Example 75, 7-Quinolin-6-yl-2-(2-quinolin-2-yl-ethyl)-2,3-dihydro-isoindol-1-one]
< 100 nM | O=C1c2c(ccnc2-c2ccncc2)CN1CCc1ccc2ccccc2n1 [Example 1, 4-Pyridin-4-yl-2-(2-quinolin-2-yl-ethyl)-1,2-dihydro-pyrrolo[3,4-c]pyridin-3-one; compound with trifluoro-acetic acid]
< 100 nM | Cc1ccc2ccc(CCN3Cc4nccc(N5CCOCC5)c4C3=O)nc2c1 [compound 392, 6-[2-(7-Methyl-2-quinolyl)ethyl]-4-morpholino-7H-pyrrolo[3,4-b]pyridin-5-one]
< 100 nM | O=C1c2c(-c3ccsc3)ccnc2CN1CCc1cn2ccccc2n1 [compound 523, 6-(2-Imidazo[1,2-a]pyridin-2-ylethyl)-4-(3-thienyl)-7H-pyrrolo[3,4-b]pyridin-5-one]
< 100 nM | O=C1c2cccc(OCc3ccncc3)c2C(=O)N1CCc1ccc2ccccc2n1 [Example 247, 4-(Pyridin-4-ylmethoxy)-2-(2-quinolin-2-yl-ethyl)-isoindole-1,3-dione]
< 100 nM | O=C1c2cccc(-c3cccnc3)c2CN1CCc1ccc2ccccc2n1 [Example 201, 4-Pyridin-3-yl-2-(2-quinolin-2-yl-ethyl)-2,3-dihydro-isoindol-1-one]
< 100 nM | Cc1cnc(-c2cccc3c2CN(CCc2ccc4ccccc4n2)C3=O)cn1 [Example 350, 4-(5-Methyl-pyrazin-2-yl)-2-(2-quinolin-2-yl-ethyl)-2,3-dihydro-isoindol-1-one]
100 to 200 nM | CN(C)c1ncc(-c2cccc3c2CN(CCc2ccc4ccccc4n2)C3=O)cn1 [Example 341, 4-(2-Dimethylamino-pyrimidin-5-yl)-2-(2-quinolin-2-yl-ethyl)-2,3-dihydro-isoindol-1-one]
100 to 200 nM | CC1(C)c2cccc(-c3ccncc3)c2C(=O)N1CCc1ccc2ccccc2n1 [Example 6, 3,3-Dimethyl-7-pyridin-4-yl-2-(2-quinolin-2-yl-ethyl)-2,3-dihydro-isoindol-1-one]

From patent US9938269B2, “Inhibitor compounds of phosphodiesterase type 10A” (ABBVIE INC., priority 2011, dated 2018)
